{"source": "patent US12653191B2", "about": "“Active compound combinations” (Bayer Aktiengesellschaft, priority 2020, dated 2026)", "format_in_all_cases": "cell-based", "key": {"Alternaria alternata": {"system": "Alternaria alternata", "experiment": "in vitro-Test with fungal microorganisms, Method B (tables A13-A22)", "procedure,_shortened": "(§1)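 Efficacy scale: 0% means growth equal to the untreated control, 100% means none detected. Compounds are dried from methanol with emulsifier before adding inoculated growth medium; incubation at 20° C., 85% relative humidity for 3 to 7 days precedes photometric inhibition readout.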"}, "Botrytis cinerea [1]": {"system": "Botrytis cinerea", "experiment": "in vitro-Test with fungal microorganisms, Method A (tables B1-B14)", "details": "for Efficacy %: alone", "procedure,_shortened": "(§2)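 Growth inhibition was measured photometrically at 620 nm 3–5 days after application, with 100% efficacy meaning no growth and 0% meaning growth equal to the untreated control. Fungal spore or mycelium suspension in potato dextrose broth was added onto solvent-evaporated compound and incubated at 20° C and 85% relative humidity.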"}, "Botrytis cinerea [2]": {"system": "Botrytis cinerea", "experiment": "in vitro-Test with fungal microorganisms, Method B (tables B15-B18)", "details": "0.8 ppm, alone", "procedure,_shortened": "as §1"}, "Cercospora beticola [3]": {"system": "Cercospora beticola", "experiment": "in vitro-Test with fungal microorganisms, Method A (tables C1-C10)", "procedure,_shortened": "as §2"}, "Cercospora beticola [4]": {"system": "Cercospora beticola", "experiment": "in vitro-Test with fungal microorganisms, Method B (tables C11-C20)", "details": "single compound, 0.8 ppm", "procedure,_shortened": "as §1"}, "[5]": {"system": "Colletotrichum lindemuthianum", "experiment": "in vitro-Test with fungal microorganisms, Method A (tables D1-D8)", "procedure,_shortened": "as §2"}, "Cordana musae [6]": {"system": "Cordana musae", "experiment": "in vitro-Test with fungal microorganisms, Method A (tables E1-E8)", "details": "single substance", "procedure,_shortened": "as §2"}, "Cordana musae [7]": {"system": "Cordana musae", "experiment": "in vitro-Test with fungal microorganisms, Method B (tables E9-E16)", "details": "single active", "procedure,_shortened": "as §1"}, "Diaporthe citri [8]": {"system": "Diaporthe citri", "experiment": "in vitro-Test with fungal microorganisms, Method A (tables F1-F11)", "procedure,_shortened": "as §2"}, "Diaporthe citri [9]": {"system": "Diaporthe citri", "experiment": "in vitro-Test with fungal microorganisms, Method B (tables F12-F15)", "details": "Table F14", "procedure,_shortened": "as §1"}, "Fusarium culmorum": {"system": "Fusarium culmorum", "experiment": "in vitro-Test with fungal microorganisms, Method B (tables G5-G15)", "details": "single active compound", "procedure,_shortened": "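Cpd in MeOH + alkylaryl-polyglycol-ether, solvent evaporated; liquid medium + fungal spores/mycelium added; OD600 read; 3–7 d, 20° C., 85% RH; growth inhibition by photometry, % efficacy vs untreated ctrl.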"}, "Parastagonospora nodorum": {"system": "Parastagonospora nodorum", "experiment": "in vitro-Test with fungal microorganisms, Method A (tables H1-H4)", "protocol": "Example: In Vitro-Test with Fungal Microorganisms\nWells of 96-well microtiter plates are filled with 10 μl of a preparation of test compound or compound combination in methanol+emulsifier alkylaryl-polyglycol-ether. Thereafter, the solvent is evaporated in a hood. At the next step, 100 μl of liquid potato dextrose medium is given into each well, that has been amended with an appropriate concentration of spores or mycelium suspension of the test fungus.\nWith the aid of a photometer, the extinction in all wells is measured at the wavelength of 620 nm.\nThe microtiter plates are incubated at 20° C. and 85% relative humidity. The inhibition of growth is determined again photometrically 3-5 days after the application. Efficacy is calculated in relation to the untreated control, 0% efficacy means fungal growth as high as in untreated control while 100% efficacy means no fungal growth is measured.\nThe data in tables A1 to A12, B1 to B14, C1 to C10, D1 to D8, E1 to E8, F1 to F11, G1 to G4, H1 to H4 and I1 to I5 were collected according to Method A. The data in tables A13 to A22, B15 to B18, C11 to C20, E9 to E16, F12 to F15, G5 to G15, H5 to H8, I6 to I11 and J1 to J11 were collected according to Method B."}, "[10]": {"system": "Ustilago segetum var. avenae", "experiment": "in vitro-Test with fungal microorganisms, Method A (tables I1-I5)", "details": "alone", "procedure,_shortened": "as §2"}, "Colletotrichum coccodes": {"system": "Colletotrichum coccodes", "experiment": "in vitro-Test with fungal microorganisms, Method B (tables J1-J11)", "procedure,_shortened": "as §1"}}, "note": "Where “and” joins values, the source holds several entries; their conditions need not be identical. Equal values may be shown once."}
{"substance": "mancozeb [(5.013) mancozeb]", "values": [{"measurement": "Efficacy", "setting": "Alternaria alternata; 0.8 ppm", "value": 4, "unit": "%"}, {"measurement": "Efficacy", "setting": "Alternaria alternata; 4 ppm", "value": 36, "unit": "%"}, {"measurement": "Efficacy", "setting": "Alternaria alternata; 20 ppm", "value": 63, "unit": "%"}, {"measurement": "Efficacy", "setting": "Botrytis cinerea [1]; 0.4 ppm", "value": 0, "unit": "%"}, {"measurement": "Efficacy", "setting": "Botrytis cinerea [1]; 2.0 ppm", "value": 0, "unit": "%"}, {"measurement": "Efficacy", "setting": "Botrytis cinerea [1]; 10.0 ppm", "value": 33, "unit": "%"}, {"measurement": "Efficacy %", "setting": "Botrytis cinerea [1]; 0.8 ppm", "value": 15, "unit": "%"}, {"measurement": "Efficacy %", "setting": "Botrytis cinerea [1]; 4.0 ppm", "value": 0, "unit": "%"}, {"measurement": "Efficacy %", "setting": "Botrytis cinerea [1]; 20.0 ppm", "value": 15, "unit": "%"}, {"measurement": "Efficacy %", "setting": "Botrytis cinerea [1]; 100.0 ppm", "value": 83, "unit": "%"}, {"measurement": "Efficacy %", "setting": "Botrytis cinerea [2]", "value": "0% and 4%"}, {"measurement": "Efficacy %", "setting": "Cercospora beticola [3]; 0.08 ppm", "value": "4% and 0%"}, {"measurement": "Efficacy %", "setting": "Cercospora beticola [3]; 0.08 ppm alone", "value": 0, "unit": "%"}, {"measurement": "Efficacy %", "setting": "Cercospora beticola [3]; 0.4 ppm alone", "value": 0, "unit": "%"}, {"measurement": "Efficacy %", "setting": "Cercospora beticola [3]; 2.0 ppm", "value": 100, "unit": "%"}, {"measurement": "Efficacy %", "setting": "Cercospora beticola [3]; 2.0 ppm alone", "value": 100, "unit": "%"}, {"measurement": "Efficacy %", "setting": "Cercospora beticola [3]; 10.0 ppm", "value": 100, "unit": "%"}, {"measurement": "Efficacy %", "setting": "Cercospora beticola [3]; 10.0 ppm, alone", "value": 100, "unit": "%"}, {"measurement": "Efficacy %", "setting": "Cercospora beticola [4]", "value": 0, "unit": "%"}, {"measurement": "Efficacy %", "setting": "[5]; single active at 0.08 ppm", "value": 4, "unit": "%"}, {"measurement": "Efficacy %", "setting": "[5]; single active at 0.4 ppm", "value": 0, "unit": "%"}, {"measurement": "Efficacy %", "setting": "[5]; single active at 10.0 ppm", "value": 100, "unit": "%"}, {"measurement": "Efficacy %", "setting": "Cordana musae [6]; 0.08 ppm", "value": 0, "unit": "%"}, {"measurement": "Efficacy %", "setting": "Cordana musae [6]; 0.4 ppm", "value": "0% and 3%"}, {"measurement": "Efficacy %", "setting": "Cordana musae [6]; 2.0 ppm", "value": "31% and 32%"}, {"measurement": "Efficacy %", "setting": "Cordana musae [6]; 10.0 ppm", "value": 100, "unit": "%"}, {"measurement": "Efficacy", "setting": "Cordana musae [7]; 0.8 ppm", "value": 0, "unit": "%"}, {"measurement": "Efficacy", "setting": "Cordana musae [7]; 4 ppm", "value": "14% and 19%"}, {"measurement": "Efficacy", "setting": "Cordana musae [7]; 20 ppm", "value": 100, "unit": "%"}, {"measurement": "Efficacy", "setting": "Diaporthe citri [8]; Table F10, 0.08 ppm alone", "value": 0, "unit": "%"}, {"measurement": "Efficacy", "setting": "Diaporthe citri [8]; Table F10, 0.4 ppm alone", "value": 46, "unit": "%"}, {"measurement": "Efficacy", "setting": "Diaporthe citri [8]; Table F10, 2.0 ppm alone", "value": 100, "unit": "%"}, {"measurement": "Efficacy", "setting": "Diaporthe citri [8]; Table F10, 10.0 ppm alone", "value": 100, "unit": "%"}, {"measurement": "Efficacy", "setting": "Diaporthe citri [8]; applied alone, 0.08 ppm", "value": 6, "unit": "%"}, {"measurement": "Efficacy", "setting": "Diaporthe citri [8]; applied alone, 0.4 ppm", "value": 21, "unit": "%"}, {"measurement": "Efficacy", "setting": "Diaporthe citri [8]; applied alone, 2.0 ppm", "value": 100, "unit": "%"}, {"measurement": "Efficacy", "setting": "Diaporthe citri [8]; applied alone, 10.0 ppm", "value": 100, "unit": "%"}, {"measurement": "Efficacy", "setting": "Diaporthe citri [8]; single active, 0.08 ppm", "value": 2, "unit": "%"}, {"measurement": "Efficacy", "setting": "Diaporthe citri [8]; single active, 0.4 ppm", "value": 0, "unit": "%"}, {"measurement": "Efficacy", "setting": "Diaporthe citri [8]; single active, 2.0 ppm", "value": 46, "unit": "%"}, {"measurement": "Efficacy", "setting": "Diaporthe citri [8]; single active, 10.0 ppm", "value": 100, "unit": "%"}, {"measurement": "Efficacy", "setting": "Diaporthe citri [9]; 0.8 ppm alone", "value": 0, "unit": "%"}, {"measurement": "Efficacy", "setting": "Diaporthe citri [9]; 4 ppm alone", "value": 78, "unit": "%"}, {"measurement": "Efficacy", "setting": "Diaporthe citri [9]; 20 ppm alone", "value": 99, "unit": "%"}, {"measurement": "Efficacy", "setting": "Fusarium culmorum; 0.8 ppm", "value": 0, "unit": "%"}, {"measurement": "Efficacy", "setting": "Fusarium culmorum; 4 ppm", "value": 16, "unit": "%"}, {"measurement": "Efficacy", "setting": "Fusarium culmorum; 20 ppm", "value": "50% and 31%"}, {"measurement": "Efficacy", "setting": "Parastagonospora nodorum; 0.08 ppm", "value": 0, "unit": "%"}, {"measurement": "Efficacy", "setting": "Parastagonospora nodorum; 0.4 ppm", "value": 5, "unit": "%"}, {"measurement": "Efficacy", "setting": "Parastagonospora nodorum; 2.0 ppm", "value": 37, "unit": "%"}, {"measurement": "Efficacy", "setting": "Parastagonospora nodorum; 10.0 ppm", "value": 100, "unit": "%"}, {"measurement": "Efficacy %", "setting": "[10]; 0.08 ppm", "value": 3, "unit": "%"}, {"measurement": "Efficacy %", "setting": "[10]; 0.4 ppm", "value": 0, "unit": "%"}, {"measurement": "Efficacy %", "setting": "[10]; 2.0 ppm", "value": 10, "unit": "%"}, {"measurement": "Efficacy %", "setting": "[10]; 10.0 ppm", "value": 98, "unit": "%"}, {"measurement": "Efficacy %", "setting": "Colletotrichum coccodes; single active compound at 0.8 ppm", "value": 0, "unit": "%"}, {"measurement": "Efficacy %", "setting": "Colletotrichum coccodes; single active compound at 4 ppm", "value": 0, "unit": "%"}, {"measurement": "Efficacy %", "setting": "Colletotrichum coccodes; single active compound at 20 ppm", "value": 100, "unit": "%"}]}
